Reference: US20220267288A1, “CARDIAC THERAPEUTIC” (priority 2019, published 2022)

What was measured:
[1] = Cytotoxicity (dead-cell protease, Mitochondrial ToxGlo) in differentiated H9c2 cells; format: cell-based; conditions: rat, differentiated H9c2 cells, 6 h exposure, read-out: cytotoxicity EC50 (bis-AAF-R110 dead-cell protease fluorescence)
Description: (§1) H9c2 cell line was purchased from American Tissue Type Collection (ATCC) (Manassas, Va.). The cells were cultured in low-glucose DMEM growth media (Cat No: 31600, Thermo Fisher Scientific, Waltham, Mass.) supplemented with 1.5 g/L sodium bicarbonate, 25 mM HEPES, 10% fetal bovine serum (FBS) (GE Healthcare, Singapore), 100 units/mL penicillin, 100 μg/mL streptomycin and 250 ng/mL amphotericin B in 75-cm^2 tissue-culture flasks at 37° C. in a humidified atmosphere of 5% CO2. Cells were fed every 2-3 days and sub-cultured once 70-80% confluency was achieved to prevent the loss of differentiation potential. For differentiation, H9c2 cells were seeded at a density of 100,000 cells/well in 12-well plates. The cells were maintained for 1 day in low-glucose high-serum growth media to allow for cell attachment. Subsequently, cells were differentiated using 1 μM ATRA.
(§2) H9c2 cells were seeded in a white chimney plate and differentiated. The media was changed to DMEM with 10 mM galactose, 2 mM glutamine (6 mM final), 5 mM HEPES, 1 mM sodium pyruvate, 100 U/mL penicillin, 100 μg/mL streptomycin, 0.25 μg/mL amphotericin B, 1% FBS, 1× insulin-transferrin-selenium and 1 μM ATRA for 48 h to overcome the Crabtree effect. […] The cytotoxicity and intracellular ATP content were measured concurrently using Mitochondrial ToxGlo™ kit (Promega, Madison, Wis.) using manufacturer's protocol. Mitochondrial ToxGlo™ assay measures the cell viability using fluorogenic peptide bis-alanine-alanine-phenylalanine-R110 (bis-AAF-R110). Bis-AAF-R110 is a selective peptide that measures protease activity in dead cells since it is impermeable to live cells. Here, the fluorescence derived from metabolized bis-AAF-R110 was measured at different concentrations of the test compounds and compared to control. As the concentration of cytotoxic compound increases, the number of dead cells increases, leading to a higher fluorescence signal. ATP is measured by adding the ATP Detection Reagent, resulting in cell lysis and generation of a luminescent signal proportional to the amount of ATP present. […]

H9c2 cells = test: as above; format: cell-based
Description: as §1, §2

CYP3A4 = molecular target: T1, CYP3A4 (Homo sapiens, UniProt P08684); conditions: literature value, similar experimental set-up; cited from earlier work
T1 construct: purchased BD Gentest (Woburn, Mass.)

CYP3A5 = molecular target: T2, CYP3A5 (Homo sapiens, UniProt P20815); conditions: literature value, similar experimental set-up; cited from earlier work
T2 construct: purchased BD Gentest (Woburn, Mass.)

[2] = tested on: chronic atrioventricular block dog; test: Paroxysmal atrial fibrillation model in chronic atrioventricular block dogs; format: in vivo
Description: Experiments were performed using female beagle dogs weighing approximately 10 kg (n=4). Animals were obtained through Kitayama Labes Co., Ltd. (Nagano, Japan). All experiments were approved by the Toho University Animal Care and User Committee (No. 19-52-395) and performed according to the Guideline for the Care and Use of Laboratory Animals of Toho University.
The catheter ablation technique of atrioventricular node was employed as previously described^11,14. The dogs were anesthetized with pentobarbital sodium (30 mg/kg, i.v.). After intubation with a cuffed endotracheal tube, the respiration was controlled with room air using a volume-limited ventilator (SN-480-3; Shinano Manufacturing Co., Ltd., Tokyo, Japan). Tidal volume and respiratory rate were set at 20 mL/kg and 15 breaths/min, respectively. Heparin calcium (100 IU/kg, i.v.) was administered to prevent blood clotting. The surface lead II electrocardiogram was continuously monitored. A quad-polar electrodes catheter with a large tip of 4 mm (D7-DL-252; Cordis-Webster Inc., CA, USA) was inserted through the catheter sheath (FAST-CATH™ 406119; St. Jude Medical Daig Division, Inc., Minnetonka, Minn., USA) placed at the right femoral vein and positioned across the tricuspid valve under the guide of bipolar electrogram from the distal electrode pair. The optimal site for the atrioventricular node ablation; namely, the compact atrioventricular node, was determined on the basis of the intra-cardiac electrogram, of which a very small His deflection was recorded and atrial/ventricular voltage ratio was >2. The power source for the atrioventricular nodal ablation was obtained from an electrosurgical generator (MS-1500; Senko Medical Instrument Manufacturing Co., Ltd., Tokyo, Japan), which delivers continuous unmodulated radiofrequency energy at a frequency of 500 kHz. After determining the proper location, the radiofrequency energy of 20 W was delivered for 10 s from the tip electrode to an indifferent patch electrode positioned on the animal's back, which was continued then for 30 s if junctional ectopic complexes were induced. The endpoint of this procedure was the development of the complete atrioventricular block with an onset of stable idioventricular escaped rhythm. All surgical procedures described above were performed under the sterile condition.
The paroxysmal atrial fibrillation model was prepared as previously reported^12,13. More than 3 months after the induction of atrioventricular block, the dogs (n=4) were anesthetized with pentobarbital sodium (30 mg/kg, i.v.). After intubation with a cuffed endotracheal tube, the dogs were artificially ventilated with 0.5-1.5% isoflurane in oxygen using a volume-limited ventilator (SN-480-3; Shinano Manufacturing Co., Ltd.). Tidal volume and respiratory rate were set at 20 mL/kg and 15 breaths/min, respectively. The surface lead II electrocardiogram was obtained from the limb electrodes. […] An indwelling needle (Surflo® 18G; Terumo Corporation, Tokyo, Japan) was placed at the right femoral artery, through which the arterial blood pressure was measured.
Three sets of standard 6-French quad-polar electrodes catheter (Cordis-Webster Inc.) were used. First one was positioned at the high right atrium through the right femoral vein to electrically pace the sinus nodal area and to simultaneously obtain the right atrial electrogram. Second one was positioned in the esophagus via os to record to the left atrial electrogram. Third one was positioned at the inter-atrial septum of the right atrium through the left femoral vein to electrically induce paroxysmal atrial fibrillation as described below. The optimal sites of each catheter were determined by the temporal relationship between the bipolar atrial electrograms from the distal electrodes pair and P wave of the electrocardiogram. […]

[3] = high dose 3 mg/kg i.v., for 10-60 min

T1 sequence (P08684 whole entry): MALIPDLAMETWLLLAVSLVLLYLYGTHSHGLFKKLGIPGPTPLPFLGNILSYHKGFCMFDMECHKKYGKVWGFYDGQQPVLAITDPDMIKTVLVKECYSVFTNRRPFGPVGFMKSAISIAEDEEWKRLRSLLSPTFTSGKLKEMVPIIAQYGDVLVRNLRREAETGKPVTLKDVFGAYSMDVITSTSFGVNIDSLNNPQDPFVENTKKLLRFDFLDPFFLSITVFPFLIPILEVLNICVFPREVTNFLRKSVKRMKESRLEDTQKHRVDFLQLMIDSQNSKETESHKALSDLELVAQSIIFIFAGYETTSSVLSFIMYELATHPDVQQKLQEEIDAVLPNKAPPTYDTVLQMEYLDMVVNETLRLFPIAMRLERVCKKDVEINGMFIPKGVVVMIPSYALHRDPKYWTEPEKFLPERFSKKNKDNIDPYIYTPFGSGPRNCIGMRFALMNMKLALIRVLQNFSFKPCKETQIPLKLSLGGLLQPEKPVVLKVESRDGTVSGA
T2 sequence (P20815 whole entry): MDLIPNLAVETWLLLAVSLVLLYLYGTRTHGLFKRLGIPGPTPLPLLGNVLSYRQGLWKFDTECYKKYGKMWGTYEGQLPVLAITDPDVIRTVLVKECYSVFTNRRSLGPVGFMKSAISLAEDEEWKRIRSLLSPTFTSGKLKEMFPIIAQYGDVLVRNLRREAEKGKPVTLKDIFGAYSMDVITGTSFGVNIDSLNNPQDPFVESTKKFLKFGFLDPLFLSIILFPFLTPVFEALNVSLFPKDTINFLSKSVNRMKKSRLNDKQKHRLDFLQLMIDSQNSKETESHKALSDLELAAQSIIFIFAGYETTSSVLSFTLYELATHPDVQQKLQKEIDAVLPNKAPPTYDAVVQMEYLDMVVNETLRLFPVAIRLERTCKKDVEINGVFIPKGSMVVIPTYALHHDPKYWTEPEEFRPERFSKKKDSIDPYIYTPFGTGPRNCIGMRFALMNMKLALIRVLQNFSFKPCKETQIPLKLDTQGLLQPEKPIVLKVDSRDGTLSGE

CCCCc1oc2ccc(NS(C)(=O)=O)cc2c1C(=O)c1ccc(OCCCN(CCCC)CCCC)cc1.Cl [Dronedarone]
EC50 at 6 h [1]: 1.21 µM | EC50 (H9c2 cells; 6 h exposure, read-out: cytotoxicity EC50 (bis-AAF-R110 dead-cell protease fluorescence)): 1.2 µM | increase in the protease activity (cell death) (H9c2 cells; no pre-treatment with EETs): 150-200% | CLint CYP3A4 reported by Hong et al (CYP3A4): 6.442 µL/min/pmol | CLint CYP3A5 reported by Hong et al (CYP3A5): 2.604 µL/min/pmol

Cl.[2H]c1c(NS(C)(=O)=O)c([2H])c2c(C(=O)c3ccc(OCCCN(CCCC)CCCC)cc3)c(CCCC)oc2c1[2H] [Poyendarone, Methanesulfonamide, N-(2-butyl-3-(4-(3-(dibutylamino)propoxy)benzoyl)-1-benzo(4,6,7-d3)-furan-5-yl)hydrochloride]
lethal ventricular arrhythmias or hemodynamic collapse ([2]; 0.3 and 3 mg/kg i.v., experimental period): No animals exerted any lethal ventricular arrhythmias or hemodynamic collapse leading to their death | duration of atrial fibrillation after burst pacing (typical tracing) ([2]; 20 min after 3 mg/kg, pre-drug control 6.9 s): 1.8 s | effect on AERP(CL200) ([2]; high dose 3 mg/kg i.v.): no significant change | effect on VERP(CL400) ([2]; high dose 3 mg/kg i.v.): no significant change | effect on cycle length of atrial fibrillation ([2]; high dose 3 mg/kg i.v.): tended to be prolonged, which did not achieve statistical significance | effect on mean blood pressure ([2]; high dose 3 mg/kg i.v.): hardly altered | effect on sinoatrial rate ([2]; high dose 3 mg/kg i.v.): hardly altered | effect on IACT(CL300) ([2]; high dose 3 mg/kg i.v., at 10 min): prolonged | effect on IACT(CL400) ([2]; high dose 3 mg/kg i.v., at 10 min and for 30-60 min): prolonged | effect on AERP(CL300) [2, 3]: prolonged | effect on AERP(CL400) [2, 3]: prolonged | effect on IACT(CL200) [2, 3]: prolonged | effect on duration of atrial fibrillation [2, 3]: shortened | effect on AERP(CL200) ([2]; low dose 0.3 mg/kg i.v.): no significant change | effect on AERP(CL300) ([2]; low dose 0.3 mg/kg i.v.): no significant change | effect on IACT(CL200) ([2]; low dose 0.3 mg/kg i.v.): did not alter | effect on IACT(CL300) ([2]; low dose 0.3 mg/kg i.v.): did not alter | effect on IACT(CL400) ([2]; low dose 0.3 mg/kg i.v.): did not alter | effect on VERP(CL400) ([2]; low dose 0.3 mg/kg i.v.): no significant change | effect on cycle length of atrial fibrillation ([2]; low dose 0.3 mg/kg i.v.): did not alter | effect on duration of atrial fibrillation ([2]; low dose 0.3 mg/kg i.v.): did not alter | effect on mean blood pressure ([2]; low dose 0.3 mg/kg i.v.): hardly altered | effect on sinoatrial rate ([2]; low dose 0.3 mg/kg i.v.): hardly altered | effect on AERP(CL400) ([2]; low dose 0.3 mg/kg i.v., at 20 min): prolonged
